Assay results as given in patent US20230037975A1, “USE OF C[…] IN ORAL CARE COMPOSITIONS TO INHIBIT THE GROWTH OF P. GINGIVALIS” (Demetrix, Inc., priority 2021, published 2023).
In brackets after ≈: the same amount, converted by molar mass. Where two headings read alike, the source gives them in different places.

Test system: Porphyromonas gingivalis
Test: minimum inhibitory concentration (MIC) assay against P. gingivalis
Format: cell-based
Experimental: To determine the ability of the cannabinoid compounds described herein to reduce, or eliminate, P. gingivalis a minimum inhibitory concentration (“MIC”) assay was performed. The assay was performed by Charles River Laboratories International (Wilmington, Mass.) in accordance with industry standards.

[1] = Porphyromonas gingivalis, read-out: minimum inhibitory concentration (MIC) against P. gingivalis
[2] = Porphyromonas gingivalis; against P. gingivalis; Table 1; read-out: MIC
[3] = Porphyromonas gingivalis; read-out: minimum inhibitory concentration (MIC) against P. gingivalis

Molecule	minimum inhibitory concentration (MIC) against P. gingivalis	MIC (against P. gingivalis; Table 1)	MIC [1]	MIC [2]	MIC [3]
C=C(C)[C@@H]1CCC(C)=C[C@H]1c1c(O)cc(CCCCC)cc1O [CBD, cannabidol]	3.125 µg/mL (≈ 9.94 µM)	3.125 µg/mL (≈ 9.94 µM)	–	–	–
CCCCCc1cc2c(c(O)c1C(=O)O)C=CC(C)(CCC=C(C)C)O2 (stereo not drawn) [CBCA, cannabichromenic acid]	3.125 µg/mL (≈ 8.72 µM)	3.125 µg/mL (≈ 8.72 µM)	–	–	–
C=C(C)[C@@H]1CCC(C)=C[C@H]1c1c(O)cc(CCCC)cc1O [CBD-C4, cannabidol-C4]	3.125 µg/mL (≈ 10.4 µM)	3.125 µg/mL (≈ 10.4 µM)	–	–	–
CCCCCc1cc2c(c(O)c1C(=O)O)-c1cc(C)ccc1C(C)(C)O2 [CBNA, cannabinolic acid]	3.125 µg/mL (≈ 8.82 µM)	3.125 µg/mL (≈ 8.82 µM)	–	–	–
CCCc1cc(O)c(C/C=C(\C)CCC=C(C)C)c(O)c1 [CBGV, cannabigerivarin]	3.125 µg/mL (≈ 10.8 µM)	3.125 µg/mL (≈ 10.8 µM)	–	–	–
CCCCCc1cc(O)c(C/C=C(\C)CCC=C(C)C)c(O)c1 [CBG, cannabigerol]	–	–	< 1 µg/mL	0.78 µg/mL (≈ 2.46 µM)	–
C=C(C)[C@@H]1CCC(C)=C[C@H]1c1c(O)cc(CCC)c(C(=O)O)c1O [CBDVA, cannabidivarinic acid]	25 µg/mL (≈ 75.7 µM)	25 µg/mL (≈ 75.7 µM)	–	–	–
C=C(C)[C@@H]1CCC(C)=C[C@H]1c1c(O)cc(C)cc1O [CBD-C1, Cannabidiorcol]	100 µg/mL (≈ 387 µM)	100 µg/mL (≈ 387 µM)	–	–	–
C=C(C)[C@@H]1CCC(C)=C[C@H]1c1c(O)cc(CCCCC)c(C(=O)O)c1O [CBDA, cannabidiolic acid]	–	–	< 1 µg/mL	0.39 µg/mL (≈ 1.09 µM)	–
CCCCCc1cc(O)c2c(c1)OC(C)(CCC=C(C)C)C=C2 (stereo not drawn) [CBC, cannabichromene]	–	–	–	1.56 µg/mL (≈ 4.96 µM)	1.56 µg/mL (≈ 4.96 µM)
CCCCCc1cc(O)c2c(c1)OC(C)(C)c1ccc(C)cc1-2 [CBN, cannabinol]	–	–	–	3.12 µg/mL (≈ 10.1 µM)	3.12 µg/mL (≈ 10.1 µM)
(+)-cannabidiol [(+)-CBD]	–	0.78 µg/mL	–	–	–
CCCCCc1cc(O)c(C/C=C(\C)CCC=C(C)C)c(O)c1C(=O)O [CBGA, cannabigerolic acid]	–	–	< 1 µg/mL	≤ 0.097 µg/mL	–
CCCCCc1cc2c(c(O)c1C(=O)O)C1C3C(CCC3(C)O2)C1(C)C (stereo not drawn) [CBLA, cannabicyclolic acid]	3.125 µg/mL (≈ 8.72 µM)	3.125 µg/mL (≈ 8.72 µM)	–	–	–
C=C(C)[C@@H]1CCC(C)=C[C@H]1c1c(O)cc(CCC)cc1O [CBDV, cannabidivarin]	–	–	–	3.12 µg/mL (≈ 10.9 µM)	3.12 µg/mL (≈ 10.9 µM)
CCCc1cc(O)c(C/C=C(\C)CCC=C(C)C)c(O)c1C(=O)O [CBGVA, cannabigerovarinic acid]	25 µg/mL (≈ 75.2 µM)	25 µg/mL (≈ 75.2 µM)	–	–	–
CCCCc1cc(O)c(CC=C(C)CCC=C(C)C)c(O)c1 [CBG-C4, cannabigerol butyl]	3.125 µg/mL (≈ 10.3 µM)	3.125 µg/mL (≈ 10.3 µM)	–	–	–
CCCCc1cc(O)c(C/C=C(\C)CCC=C(C)C)c(O)c1C(=O)O [CBGA-C4, cannabigerolic acid butyl]	6.25 µg/mL (≈ 18 µM)	6.25 µg/mL (≈ 18 µM)	–	–	–
CCCCCc1cc(O)c2c(c1)OC1(C)CCC3C1C2C3(C)C (stereo not drawn) [CBL, cannabicyclol]	–	–	–	> 200 µg/mL	> 200 µg/mL
C=C(C)[C@@H]1CCC(C)=C[C@H]1c1c(O)cc(CC)cc1O [CBD-C2, Cannabidol-C2]	6.25 µg/mL (≈ 22.9 µM)	6.25 µg/mL (≈ 22.9 µM)	–	–	–
